From US4294958A, “Water-soluble salts of trimethylammonium derivatives of polyene macrolide antibiotics and the preparation thereof” (Politechnika Gdanska, priority 1978, dated 1981)
Values after ≈ are worked out from the molar mass of the structure shown. Read-outs that look alike come from different tables or passages of the source.

Legend:
Format in all cases: cell-based
[1] = test system: Saccharomyces cerevisiae cells; test: antifungal activity: inhibition of growth of Saccharomyces cerevisiae in liquid standard medium
Protocol: IC50 means the concentration of the substance causing 50% inhibitio
of the growth of Saccharomyces cerevisiae cells in liquid standard medium
determined spectrophotometrically at λ = 600 nm after 24 hours

[2] = haemolytic activity (hemoglobin, determined spectrophotometrically)
From the text: (§1) EH50 means the concentration of the substance causing in conditions
(§2) 50% of hemoglobin determined spectrophotometrically at λ = 550 nm.

[3] = test system: hemoglobin; test: as above
From the text: as §1, §2

[4] = in vitro haemolysis, 50% of hemoglobin, λ = 550 nm, read-out: EH50 (the source's name)
[5] = 50% inhibition of growth of Saccharomyces cerevisiae, liquid standard medium, λ = 600 nm, 24 hours, 28° C., read-out: IC50
[6] = 50% inhibition of growth of Saccharomyces cerevisiae, liquid standard medium, λ = 600 nm, 24 hours, 28° C.
[7] = in vitro haemolysis, 50% of hemoglobin, λ = 550 nm

Row | Compound | IC50 [1, 6] | EH50 [3, 7] | also measured
1 | C[C@@H]1[C@H](O)[C@@H](C)/C=C/C=C/C=C/C=C/C=C/C=C/C=C/[C@H](O[C@@H]2O[C@H](C)[C@@H](O)[C@H](N)[C@@H]2O)C[C@@H]2O[C@](O)(C[C@@H](O)C[C@@H](O)[C@H](O)CC[C@@H](O)C[C@@H](O)CC(=O)O[C@H]1C)C[C@H](O)[C@H]2C(=O)O [Amphotericin B, amphotericin B] |  |  | IC50 ([1]; Saccharomyces cerevisiae, 24 h): 0.03 µg/mL (≈ 0.0325 µM); HC50 [2, 4]: 5 µg/mL
2 | COc1cc2c(c3oc(-c4ccccc4)cc(=O)c13)C=CC(C)(C)O2 [Candidin, candidin] |  |  | IC50 [1, 5]: 0.054 µg/mL (≈ 0.161 µM); HC50 [2, 4]: 20 µg/mL
3 | COC(=O)[C@H]1[C@@H]2C[C@@H](O[C@@H]3O[C@H](C)[C@@H](O)[C@H]([N+](C)(C)C)[C@@H]3O)/C=C/C=C/C=C/C=C/C=C/C=C/C=C/[C@H](C)[C@@H](O)[C@@H](C)[C@H](C)OC(=O)C[C@H](O)C[C@H](O)CC[C@@H](O)[C@H](O)C[C@H](O)C[C@](O)(C[C@@H]1O)O2 [DMS-Amphotericin B, N,N,N-trimethylamphotericin B methyl ester] |  |  | IC50 [1, 5]: 0.08 µg/mL; HC50 [2, 4]: 5 µg/mL
4 | C[C@@H]1[C@H](O)[C@@H](C)/C=C/C=C/C=C/C=C/C=C/C=C/C=C/[C@H](O[C@@H]2O[C@H](C)[C@@H](O)[C@H](N)[C@@H]2O)C[C@@H]2O[C@](O)(C[C@@H](O)[C@H](O)CC[C@@H](O)CC(=O)C[C@@H](O)CC(=O)O[C@H]1C)C[C@H](O)[C@H]2C(=O)O [Mycoheptin, mycoheptin] | 0.05 µg/mL (≈ 0.0542 µM) | 15 µg/mL | 
5 | C[C@@H]1[C@H](O)[C@@H](C)/C=C/C=C/CC/C=C/C=C/C=C/C=C/C(O[C@H]2O[C@H](C)[C@@H](O)[C@H](N)[C@@H]2O)CC2O[C@](O)(CC(O)C(O)CCC(O)CC(O)CC(O)CC(=O)O[C@H]1C)CC(O)C2C(=O)O (stereo partly drawn) [Nystatin, nystatin] | 0.1 µg/mL (≈ 0.108 µM) | 50 µg/mL | 
6 | C[C@@H]1C/C=C/C=C/C=C/C=C/[C@H](O[C@@H]2O[C@H](C)[C@@H](O)[C@H](N)[C@@H]2O)C[C@@H]2O[C@](O)(C[C@@H](O)C[C@H]3O[C@@H]3/C=C/C(=O)O1)C[C@H](O)[C@H]2C(=O)O [Pimaricin, pimaricin] |  |  | IC50 [1, 5]: 1 µg/mL (≈ 1.5 µM); HC50 [2]: 100 µg/mL
7 | CCC[C@@H]1C/C=C/C=C/C=C/C=C/[C@H](O[C@@H]2O[C@H](C)[C@@H](O)[C@H](N)[C@@H]2O)C[C@@H]2O[C@](O)(C[C@@H](O)CCCC(=O)C[C@@H](O)[C@H](CC)C(=O)O1)C[C@H](O)[C@H]2C(=O)O [Rimocidin, rimocidin] | 1.5 µg/mL (≈ 1.95 µM) | 30 µg/mL | 
8 | N,N,N-dimethyl-mycoheptin methyl ester [DMS-Mycoheptin] | 0.2 µg/mL | 65 µg/mL | 
9 | N,N,N-trimethylcandidin methyl ester [DMS-Candidin] | 0.15 µg/mL | 70 µg/mL | 
10 | N,N,N-trimethylnystatin methyl ester [DMS-Nystatin] | 0.25 µg/mL | 100 µg/mL | 
11 | N,N,N-trimethylpolifungin methyl ester [DMS-Polifungin] | 0.15 µg/mL |  | EH50 [3]: 120 µg/mL
12 | N,N,N-trimethylrimocidin methyl ester [DMS-Rimocidin] | 2.5 µg/mL | 50 µg/mL | 
13 | aureofacin | 0.005 µg/mL | 0.35 µg/mL | 
14 | candicidin | 0.005 µg/mL | 2.5 µg/mL | 
15 | levorin | 0.007 µg/mL | 2.5 µg/mL | 
16 | perimycin | 0.002 µg/mL | 5 µg/mL | 
17 | polyfungin [Polifungin] | 0.08 µg/mL |  | EH50 [3]: 20 µg/mL
18 | trichomycin | 0.005 µg/mL | 3 µg/mL | 
